The values below come from patent US10532065B2, “Bisphosphonic acid derivative and application for same” (NAGASAKI UNIVERSITY, priority 2014, dated 2020).

Common to all, as to assay type: cell-based
Assay [1] deals with 786-0 cells / γδ T cells. Put plainly: TNF-α production from γδ T cells stimulated by compound-pretreated 786-0 cells. The conditions noted are these: 786-0, Renal cell carcinoma, 4 hr pretreatment, 16 hr with γδ T cells, read-out: TNF-α50. On the procedure: (§1) Since the above-mentioned results of Experimental Example confirm that the activity of bisphosphonic acids becomes high by POM esterification in various tumor cells, the TNF-α production induction ability of more number of tumor cells was quantitatively studied. […] Thereto was added a solution (500 μl) of compound 7 obtained by serially diluting 10 mM stock solution 10-fold from 20 μM, or a solution (500 μl) of compound 14 obtained by serially diluting 10 mM stock solution 10-fold from 200 μM, and the cells were suspended well. These conical tubes were stood at 37° C. for 4 hr, and the cells were washed 3 times with 5 ml of culture medium. To these cells was added 500 μl of medium, and the cells were suspended well. […] The cell culture medium was suspended well, and the plate was centrifuged at 1,700 rpm, 4° C. for 2 min and the culture supernatant (150 μl) was taken and placed in another round-bottomed 96 well plate. The plate was frozen at −80° C. overnight, left standing at room temperature for 1 hr, stirred well and 100 μl thereof was subjected to ELISA of TNF-α. The content of TNF-α was calculated from the analytical curve of TNF-α. These were performed in triplicate, and TNF-α50 of bisphosphonic acid POM ester derivative (compound 7) and bisphosphonic acid (compound 14) was calculated and summarized in Table 8.

For assay [2], the system named is G-361 cells. Put plainly: G-361 tumor cell growth inhibition (CellTiterGlo). As to conditions: G-361, Melanoma, 4 days culture.
Procedure: (§2) First, EJ-1, 786-0, MKN1, OST, PC-3, PK-1, LK-2, G-361, TFK-1, MRK-nu-1 were cultured in RPMI1640 medium supplemented with 10% calf serum at 37° C. under 5% CO2 atmosphere while maintaining log phase. The cells were recovered by a conventional EDTA trypsin treatment, and centrifuged at 1,700 rpm, 4° C. for 5 min. The supernatant was removed, and suspended in RPMI1640 medium supplemented with 10% calf serum to 500 cells/50 μl. On the other hand, 10 mM stock solution of compound 7 which is a bisphosphonic acid POM ester derivative was serially diluted 2-fold from 200 pM. In addition, 10 mM stock solution of compound 14 which is bisphosphonic acid was serially diluted 2-fold from 2 mM. Then, the cell suspension (50 μl, 500 cells) and the compound solution (50 μl) were added to a flat-bottomed 96 well plate and cultured at 37° C. under 5% CO2 atmosphere for 4 days. Then, 100 μl of CellTiterGlo solution was added, and the mixture was pipetted 10 strokes, and transferred to a 96 well OptiPlate. After standing at room temperature for 10 min, the luminescence was measured by a luminometer and IC50 value was calculated.
The test system of assay [3] is RAMOS-RA1 cells. As to the kind of experiment: RAMOS-RA1 tumor cell growth inhibition (CellTiterGlo). The conditions noted are these: PAMOS-RA1 (so in the source), Burkitt's lymphoma, 4 days culture. (ATP-based viability assays read luminescence as a measure of living cells.)
Procedure: (§3) To quantitatively study an action of compound 7, which is a bisphosphonic acid POM ester derivative, on various hematologic tumor-derived lymphoma and myeloidic leukemia cells, the concentration of a compound that inhibits cell proliferation to half was calculated as IC50, and a direct antitumor effect was studied from the value thereof. […] First, MOLT-4, THP-1, SCC-3, PEER, RAMOS-RA1, C1R, MOLT-3, Raji, U937, K562, Daudi were cultured in RPMI1640 medium supplemented with 10% calf serum at 37° C. under 5% CO2 atmosphere while maintaining log phase. The cells were recovered, and centrifuged at 1,700 rpm, 4° C. for 5 min. The supernatant was removed, and suspended in RPMI1640 medium supplemented with 10% calf serum to 500 cells/50 μl. On the other hand, 10 mM stock solution of compound 7 which is a bisphosphonic acid POM ester derivative was serially diluted 2-fold from 200 μM. In addition, 10 mM stock solution of compound 14 which is bisphosphonic acid was serially diluted 2-fold from 2 mM. Then, the cell suspension (50 μl, 500 cells) and the compound solution (50 μl) were added to a flat-bottomed 96 well plate and cultured at 37° C. under 5% CO2 atmosphere for 4 days. Then, 100 μl of CellTiterGlo solution was added, and the mixture was pipetted 10 strokes, and transferred to a 96 well OptiPlate. […]
In assay [4] the test system is Raji cells / γδ T cells. As to the kind of experiment: TNF-α production from γδ T cells stimulated by compound-pretreated Raji cells. As to conditions: Burkitt's lymphoma, 4 hr pretreatment, 16 hr with γδ T cells, read-out: TNF-α50. On the procedure: as §1
The subject of assay [5] is MOLT-4 cells. Put plainly: MOLT-4 tumor cell growth inhibition (CellTiterGlo). As to conditions: MOLT-4, Acute lymphoblastic leukemia, 4 days culture.
Procedure: as §3
Assay [6] has as its system SCC-3 cells. As to the kind of experiment: SCC-3 tumor cell growth inhibition (CellTiterGlo). As to conditions: SCC-3, Non-Hodgkin's lymphoma, 4 days culture.
Procedure: as §3
The test system of assay [7] is YMB-1-E cells / γδ T cells. Put plainly: TNF-α production from γδ T cells stimulated by compound-pretreated YMB-1-E cells. The conditions noted are these: Mammary carcinoma, 4 hr pretreatment, 16 hr with γδ T cells, read-out: TNF-α50. On the procedure:
as §1

For assay [8], the system named is TFK-1 cells / γδ T cells. Put plainly: TNF-α production from γδ T cells stimulated by compound-pretreated TFK-1 cells. As to conditions: TFK-1, Cholangiocarcinoma, 4 hr pretreatment, 16 hr with γδ T cells, read-out: TNF-α50. Here is the method: as §1
Assay [9] has as its system OST cells / γδ T cells. Put plainly: TNF-α production from γδ T cells stimulated by compound-pretreated OST cells. As to conditions: Osteosarcoma, 4 hr pretreatment, 16 hr with γδ T cells, read-out: TNF-α50. Here is the method:
as §1

Assay [10] deals with PEER cells / γδ T cells. As to the kind of experiment: TNF-α production from γδ T cells stimulated by compound-pretreated PEER cells. The conditions noted are these: T cell acute lymphocytic leukemia, 4 hr pretreatment, 16 hr with γδ T cells, read-out: TNF-α50. Here is the method: as §1
Assay [11] concerns C1R cells. Put plainly: C1R tumor cell growth inhibition (CellTiterGlo). As to conditions: B cell lymphoma, 4 days culture.
Procedure: as §3
For assay [12], the system named is SCC-3 cells / γδ T cells. As to the kind of experiment: TNF-α production from γδ T cells stimulated by compound-pretreated SCC-3 cells. The conditions noted are these: SCC-3, Non-Hodgkin's lymphoma, 4 hr pretreatment, 16 hr with γδ T cells, read-out: TNF-α50. Here is the method:
as §1

The subject of assay [13] is MRK-nu-1 cells. As to the kind of experiment: MRK-nu-1 tumor cell growth inhibition (CellTiterGlo). As to conditions: MRK-nu-1, Mammary carcinoma, 4 days culture.
Procedure: as §2
The subject of assay [14] is RAMOS-RA1 cells / γδ T cells. Put plainly: TNF-α production from γδ T cells stimulated by compound-pretreated RAMOS-RA1 cells. The conditions noted are these: RAMOS-RA1, Burkitt's lymphoma, 4 hr pretreatment, 16 hr with γδ T cells, read-out: TNF-α50. On the procedure:
as §1

Assay [15] deals with U937 cells / γδ T cells. As to the kind of experiment: TNF-α production from γδ T cells stimulated by compound-pretreated U937 cells. The conditions noted are these: U937, Histiocytic lymphoma, 4 hr pretreatment, 16 hr with γδ T cells, read-out: TNF-α50. On the procedure: as §1
Assay [16] has as its system MKN1 cells. Put plainly: MKN1 tumor cell growth inhibition (CellTiterGlo). The conditions noted are these: MKN1, Gastric cancer, 4 days culture.
Procedure: as §2
Assay [17] deals with K562 cells / γδ T cells. Put plainly: TNF-α production from γδ T cells stimulated by compound-pretreated K562 cells. As to conditions: K562, Erythrocytoma, 4 hr pretreatment, 16 hr with γδ T cells, read-out: TNF-α50. On the procedure: as §1
The test system of assay [18] is EJ-1 cells. As to the kind of experiment: EJ-1 cell growth inhibition (direct antitumor action, CellTiterGlo). The conditions noted are these: for IC50: EJ-1 (bladder cancer) growth inhibition, 4 days culture. In short, it runs like this: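 EJ-1 cells run as in the earlier U937 protocol, with cells recovered by conventional EDTA-trypsin treatment. POM ester derivatives were tested side by side with the parent bisphosphonic acids for direct growth inhibition, read by CellTiterGlo.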

The subject of assay [19] is U937 cells. Put plainly: U937 cell growth inhibition (direct antitumor action, CellTiterGlo). As to conditions: for IC50: U937 cell growth inhibition, 4 days culture. Here is the method:
The direct antitumor action of bisphosphonic acid POM ester and bisphosphonic acid was studied by comparison using U937.
The direct antitumor action of various bisphosphonic acid POM esters was studied by comparison using U937 and EJ-1. The measurement was performed according to Experimental Example 2 and Experimental Example 4.

Assay [20] has as its system Raji cells. As to the kind of experiment: Raji tumor cell growth inhibition (CellTiterGlo). As to conditions: Burkitt's lymphoma, 4 days culture.
Procedure: as §3
For assay [21], the system named is G-361 cells / γδ T cells. Put plainly: TNF-α production from γδ T cells stimulated by compound-pretreated G-361 cells. As to conditions: G-361, Melanoma, 4 hr pretreatment, 16 hr with γδ T cells, read-out: TNF-α50. Here is the method:
as §1

The test system of assay [22] is MOLT-3 cells. Put plainly: MOLT-3 tumor cell growth inhibition (CellTiterGlo). The conditions noted are these: MOLT-3, Acute lymphoblastic leukemia, 4 days culture.
Procedure: as §3

SMILES strings stand for the structures. Where “and” joins values, the source holds several entries; their conditions need not be identical. Equal values may be shown once. Read-outs that look alike come from different tables or passages of the source.

Consider `CC(C)(C)C(=O)OCOP(=O)(OCOC(=O)C(C)(C)C)C(CNc1nccs1)P(=O)(OCOC(=O)C(C)(C)C)OCOC(=O)C(C)(C)C` [Compound 7, tetrakispivaloyloxymethyl 2-(thiazol-2-ylamino) ethylidene-1,1-bisphosphonate], for which the EC50 in [1] amounted to 0.065 µM; in assay [4], 0.053 µM; in [7], 0.63 µM; in [8], 0.066 µM; in assay [9], 0.6 µM; in assay [10], 0.083 µM. Besides, the EC50 worked out at 0.081 µM in assay [12]; 0.14 µM in assay [14]; 0.06 µM in assay [15]; 0.08 µM in assay [17]; 0.063 µM in assay [21]. Moreover, the IC50 came out at 0.12 µM in [2]; 0.11 µM in [3]; 0.16 µM in assay [5]; 0.18 µM in assay [6]; 0.078 µM in assay [11]; 0.74 µM in assay [13]. Besides, the IC50 in [16] is 1.2 µM; in [18], 0.026 µM; in assay [19], 0.28 µM and 0.26 µM; in assay [20] it was 0.27 µM; in assay [22], 0.13 µM. Further, the “direct antitumor activity (in words)” value in assay [18] (EJ-1 growth inhibition) and in [19] (U937 growth inhibition) was “particularly high activity” in each case.

With `O=P(O)(O)C(CNc1nccs1)P(=O)(O)O` [Compound 14, 2-(thiazol-2-ylamino)ethylidene-1,1-bisphosphonic Acid, reference compound], the EC50 in [1] (Homo sapiens), in assay [4] (Homo sapiens), in assay [7] (Homo sapiens), in assay [8] (T-cell), in assay [9] (T-cell) and in assay [10] was > 100 µM in each case. Moreover, the EC50 in assay [12] (Homo sapiens) is > 100 µM; in assay [14] (T-cell) it was > 100 µM; in [15] (Homo sapiens, U-937), > 100 µM; in [17] (Homo sapiens), > 100 µM; in [21] (Homo sapiens), 5.1 µM. In addition, the IC50 in assay [2] (Homo sapiens, 96 h) was found to be 20 µM; in assay [3] (96 h), 75 µM; in [5] (Homo sapiens, 96 h), 120 µM; in assay [6] (Homo sapiens, 96 h), 66 µM; in [11] (96 h), 79 µM; in assay [13] (Homo sapiens, 96 h), 210 µM. Further, the IC50 turned out to be 100 µM in assay [16] (Homo sapiens, MKN-1, 96 h); 3.7 µM in assay [18] (EJ1, 96 h); 26 µM in [19] (Homo sapiens, U-937, 96 h); 120 µM in assay [20] (Homo sapiens, 96 h); 180 µM in [22] (Homo sapiens, 96 h).

For orientation: IC50 means the point on the concentration scale where inhibition reaches its midpoint. Read a high IC50 as lower potency.
